The series is described as follows: Solubility in water at 25 °C (weight recovered undissolved and weight dissolved after stirring 5 hours). The class given is physicochemical. Conditions: for Weight Recovered: undissolved portion, 10 grams in 100 ml of water, 5 hours stirring; for solubility thermodynamic at 5 h: water, head prints 10 ml, text prints 100 ml. On the procedure: Ten grams of Compound 1 of this invention and 10 grams of Comparative Compound (I) disclosed (as illustrative compound 3) in Japanese Patent Application No. 41221/78 for comparative purposes were each separately dissolved in 100 ml of water and stirred for 5 hours while maintaining a temperature of 25° C. The undissolved portion was recovered by filtration and the weight of the recovered material was determined after drying. Comparative Compound (I)
The weights of the compounds recovered and the amounts dissolved in 100 ml of water at 25° C. calculated on the basis of the weights recovered are shown in Table 1.

This note sets out measurements from patent US4897344A, “Method of hardening gelatin” (Fuji Photo Film Co., Ltd., priority 1987, dated 1990).

What is called solubility (thermodynamic) is solubility found after equilibrating the solid with the medium.

Values after ≈ are worked out from the molar mass of the structure shown. A value given as a limit tells only on which side of the number the result lay.

Turning to `C=CS(=O)(=O)CC(=O)NCCNC(=O)CS(=O)(=O)C=C` [Comparative Compound (I), reference compound], the “Weight Recovered” value is 8.0 grams and the thermodynamic solubility at 5 h was found to be 20 mg/mL (≈ 61.7 mM).
In the case of `C=CS(=O)(=O)C(CCc1ccc(S(=O)(=O)O)cc1)S(=O)(=O)C=C` [Compound 1], the “Weight Recovered” value came out at 0 grams and the solubility (thermodynamic) at 5 h was more than 100 mg/mL. The “solubility in water relative to Comparative Compound (I)” value (in words) is “much better solubility in water”.
